# Source: ChEMBL document CHEMBL4665663, “Anti-atherosclerosis effect of HS donors based on nicotinic acid and chlorfibrate structures” (Bioorg Med Chem, 2019)
# Calls of active or inactive are those of the source. No cut-off for these calls is given here.
# How the values were obtained:
# HUVEC [1] = test: Cytoprotective activity against ox-LDL induced cell damage in human HUVEC cells assessed as increase in cell viability at 50 uM preincubated for 10 mins followed by ox-LDL stimulation measured after 24 hrs by MTT assay; format: functional, cell-based
# HUVEC [2] = test: Cytotoxicity against human HUVEC cells assessed as reduction in cell viability at 10 to 100 uM by MTT assay; format: cell-based; details: dose 10-100 µM
# RAW264.7 [3] = test: (§1) Anti-atherosclerotic activity in mouse RAW264.7 cells assessed as decrease in ox-LDL induced intracellular lipid accumulation by measuring reduction in free cholesterol level at 50 uM preincubated for 10 mins followed by ox-LDL stimulation and measured after 24 hrs by colorimetric method relative to control; format: functional; details: RAW264.7, 10 min
# [4] = Prodrug release in phosphate buffer containing L-cysteine assessed as H2S release by measuring H2S releasing half-life at 60 uM by methylene blue method; format: ADME
# H9c2 = test: Cytotoxicity against rat H9c2 cells assessed as reduction in cell viability after 48 hrs by MTT assay; format: cell-based; details: H9c2, 48 h
# HUVEC [5] = test: Cytotoxicity against human HUVEC cells assessed as reduction in cell viability after 48 hrs by MTT assay; format: cell-based
# RAW264.7 [6] = test: Cytotoxicity against mouse RAW264.7 cells assessed as reduction in cell viability after 48 hrs by MTT assay; format: cell-based; details: RAW264.7, 48 h
# WI-38 = test: Cytotoxicity against human WI38 cells assessed as reduction in cell viability after 48 hrs by MTT assay; format: cell-based; details: WI-38, 48 h
# HUVEC [7] = test: Cytoprotective activity against ox-LDL induced cell damage in human HUVEC cells assessed as cell viability at 100 uM preincubated for 10 mins followed by ox-LDL stimulation measured after 24 hrs by MTT assay (reference value: 73.1%); format: functional; details: read-out: Activity
# HUVEC [8] = test: Anti-atherosclerotic activity against ox-LDL induced cell damage in human HUVEC cells assessed as reduction in nuclear pyknosis and apoptotic bodies formation preincubated for 10 mins followed by ox-LDL stimulation and measured after 24 hrs by Hoechst 33342 staining based fluorescence microscopy; format: functional
# HUVEC [9] = test: Anti-atherosclerotic activity against ox-LDL induced cell damage in human HUVEC cells assessed as reduction in late apoptotic and death cells preincubated for 10 mins followed by ox-LDL stimulation and measured after 24 hrs by PI staining based fluorescence microscopic analysis; format: functional
# HUVEC [10] = test: Anti-atherosclerotic activity against ox-LDL induced cell damage in human HUVEC cells assessed as reduction in early apoptotic cells by measuring increase in mitochondrial membrane potential preincubated for 10 mins followed by ox-LDL stimulation and measured after 24 hrs by JC-1 staining based fluorescence microscopic analysis; format: functional
# RAW264.7 [11] = test: Antioxidant activity in mouse RAW264.7 cells assessed as reduction in ox-LDL-induced oxidative stress by measuring increase in SOD level at 50 uM preincubated for 10 mins followed by ox-LDL stimulation and measured after 24 hrs relative to control; format: functional; parameters: scale not given: the % may be the effect or the level left
# HUVEC [12] = test: Anti-atherosclerotic activity against ox-LDL induced apoptosis in human HUVEC cells assessed as reduction in Bax expression at 10 to 50 uM preincubated for 10 mins followed by ox-LDL stimulation and measured after 24 hrs by ELISA; format: functional, cell-based; details: dose microM 10-50, time 10.0 min
# HUVEC [13] = test: Anti-atherosclerotic activity against ox-LDL induced apoptosis in human HUVEC cells assessed as reduction in caspase-3 expression at 10 to 50 uM preincubated for 10 mins followed by ox-LDL stimulation and measured after 24 hrs by ELISA; format: functional, cell-based; details: dose microM 10-50, time 10.0 min
# HUVEC [14] = test: Anti-atherosclerotic activity against ox-LDL induced apoptosis in human HUVEC cells assessed as increase in bcl-2 expression at 50 uM preincubated for 10 mins followed by ox-LDL stimulation and measured after 24 hrs by ELISA; format: functional
# RAW264.7 [15] = test: Inhibition of macrophage foam cell formation in mouse RAW264.7 cells assessed as reduction in ox-LDL induced red lipid droplets formation preincubated for 10 mins followed by ox-LDL stimulation and measured after 24 hrs by oil red O staining based inverted microscopy analysis; format: functional; details: dose microM 10-50, time 10.0 min
# RAW264.7 [16] = test: Inhibition of macrophage foam cell formation in mouse RAW264.7 cells assessed as reduction in ox-LDL induced red lipid droplets formation at 50 uM preincubated for 10 mins followed by ox-LDL stimulation and measured after 24 hrs by oil red O staining based inverted microscopy analysis; format: functional
# RAW264.7 [17] = test: as §1, with “total” for “free”; format: functional; details: RAW264.7, 10 min
# RAW264.7 [18] = test: Anti-atherosclerotic activity in mouse RAW264.7 cells assessed as decrease in ox-LDL induced intracellular lipid accumulation by measuring reduction in CE/TC ratio at 50 uM preincubated for 10 mins followed by ox-LDL stimulation and measured after 24 hrs by colorimetric method relative to control; format: functional; details: RAW264.7, 10 min
# RAW264.7 [19] = test: Antioxidant activity in mouse RAW264.7 cells assessed as reduction in ox-LDL induced ROS accumulation at 10 to 50 uM preincubated for 10 mins followed by ox-LDL stimulation and measured after 24 hrs by DCFH-DA staining based fluorescence microscopic analysis; format: functional, cell-based; details: dose microM 10-50, time 10.0 min
# RAW264.7 [20] = test: Antioxidant activity in mouse RAW264.7 cells assessed as reduction in ox-LDL induced oxidative stress by measuring decrease in MDA level at 50 uM preincubated for 10 mins followed by ox-LDL stimulation and measured after 24 hrs relative to control; format: functional; details: RAW264.7, 10 min
# RAW264.7 [21] = test: Anti-inflammatory activity in mouse RAW264.7 cells assessed as decrease in ox-LDL induced inflammatory reaction by measuring decrease in TNF-alpha production preincubated for 10 mins followed by ox-LDL stimulation and measured after 24 hrs; format: functional, cell-based; details: dose microM 10-50, time 10.0 min
# RAW264.7 [22] = test: Anti-inflammatory activity in mouse RAW264.7 cells assessed as decrease in ox-LDL induced inflammatory reaction by measuring increase in IL-10 production preincubated for 10 mins followed by ox-LDL stimulation and measured after 24 hrs; format: functional, cell-based; details: dose microM 10-50, time 10.0 min
# RAW264.7 [23] = test: Anti-atherosclerotic activity in mouse RAW264.7 cells assessed as decrease in ox-LDL induced PI3K protein expression at 10 to 50 uM preincubated for 10 mins followed by ox-LDL stimulation and measured after 24 hrs by Western blot analysis; format: functional, cell-based; details: dose microM 10-50, time 10.0 min
# RAW264.7 [24] = test: Anti-atherosclerotic activity in mouse RAW264.7 cells assessed as decrease in ox-LDL induced AKT protein expression at 10 to 50 uM preincubated for 10 mins followed by ox-LDL stimulation and measured after 24 hrs by Western blot analysis; format: functional, cell-based; details: dose microM 10-50, time 10.0 min
# RAW264.7 [25] = test: Anti-atherosclerotic activity in mouse RAW264.7 cells assessed as decrease in ox-LDL induced NFkappaB protein expression at 10 to 50 uM preincubated for 10 mins followed by ox-LDL stimulation and measured after 24 hrs by Western blot analysis; format: functional, cell-based; details: dose microM 10-50, time 10.0 min
smiles,measurement,setting,value
CC(C)(Oc1ccc(Cl)cc1)C(=O)OCCCOC(=O)CCCCC1CCSS1 (configuration not stated),Activity,HUVEC [1],Active
same,Activity,HUVEC [2],Non-Toxic
same,inhibition at 50 µM,RAW264.7 [3],25.4%
same,t1/2,[4],21.3 min
same,IC50,H9c2,> 800 µM
same,IC50,HUVEC [5],> 800 µM
same,IC50,RAW264.7 [6],> 800 µM
same,IC50,WI-38,> 800 µM
same,viability at 100 µM,HUVEC [7],89.2%
same,Activity,HUVEC [8],Active
same,Activity,HUVEC [9],Active
same,Activity,HUVEC [10],Active
same,Activity,RAW264.7 [11],45.4%
same,Activity,HUVEC [12],Active
same,Activity,HUVEC [13],Active
same,Activity,HUVEC [14],31.9%
same,inhibition,RAW264.7 [15],Dose-dependent effect
same,inhibition,RAW264.7 [16],Active
same,inhibition at 50 µM,RAW264.7 [17],52.4%
same,inhibition at 50 µM,RAW264.7 [18],30.9%
same,Activity,RAW264.7 [19],Active
same,inhibition at 50 µM,RAW264.7 [20],41%
same,Activity,RAW264.7 [21],Dose-dependent effect
same,Activity,RAW264.7 [22],Dose-dependent effect
same,Activity,RAW264.7 [23],Active
same,Activity,RAW264.7 [24],Active
same,Activity,RAW264.7 [25],Active
